Reference: PubChem BioAssay (NCI)
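Method: 48-hour compound exposure of cells in 96-well plates, five concentrations, linear interpolation of endpoints. At the GI50, growth is halved. TGI denotes the concentration required for complete inhibition of growth.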

Tests used:
Assay in all cases: NCI-60 cell line screen, 48 h; in the data active = GI50 below about 0.43 µM; inactive = the rest
786-0 renal = system: 786-0 renal
A498 renal = system: A498 renal
A549 NSCLC = system: A549 NSCLC
ACHN renal = system: ACHN renal
BT-549 breast = system: BT-549 breast
CAKI-1 renal = system: CAKI-1 renal
CCRF-CEM leukemia = system: CCRF-CEM leukemia
COLO 205 colon = system: COLO 205 colon
DU-145 prostate = system: DU-145 prostate
EKVX NSCLC = system: EKVX NSCLC
HCT-116 colon = system: HCT-116 colon
HCT-15 colon = system: HCT-15 colon
HL-60(TB) leukemia = system: HL-60(TB) leukemia
HOP-62 NSCLC = system: HOP-62 NSCLC
HS 578T breast = system: HS 578T breast
HT29 colon = system: HT29 colon
IGROV1 ovarian = system: IGROV1 ovarian
K-562 leukemia = system: K-562 leukemia
KM12 colon = system: KM12 colon
LOX IMVI melanoma = system: LOX IMVI melanoma
M14 melanoma = system: M14 melanoma
MALME-3M melanoma = system: MALME-3M melanoma
MCF7 breast = system: MCF7 breast
MDA-MB-231 breast = system: MDA-MB-231 breast
MDA-MB-435 = system: MDA-MB-435
MOLT-4 leukemia = system: MOLT-4 leukemia
NCI-H226 lung = system: NCI-H226 lung
NCI-H23 lung = system: NCI-H23 lung
NCI-H460 lung = system: NCI-H460 lung
NCI-H522 lung = system: NCI-H522 lung
NCI/ADR-RES ovarian = system: NCI/ADR-RES ovarian
OVCAR-3 ovarian = system: OVCAR-3 ovarian
OVCAR-4 ovarian = system: OVCAR-4 ovarian
OVCAR-5 ovarian = system: OVCAR-5 ovarian
OVCAR-8 ovarian = system: OVCAR-8 ovarian
PC-3 prostate = system: PC-3 prostate
RPMI-8226 leukemia = system: RPMI-8226 leukemia
SF-268 CNS = system: SF-268 CNS
SF-295 CNS = system: SF-295 CNS
SF-539 CNS = system: SF-539 CNS
SK-MEL-2 melanoma = system: SK-MEL-2 melanoma
SK-MEL-28 melanoma = system: SK-MEL-28 melanoma
SK-MEL-5 melanoma = system: SK-MEL-5 melanoma
SK-OV-3 ovarian = system: SK-OV-3 ovarian
SN12C renal = system: SN12C renal
SNB-19 CNS = system: SNB-19 CNS
SNB-75 CNS = system: SNB-75 CNS
SR leukemia = system: SR leukemia
T-47D breast = system: T-47D breast
TK-10 renal = system: TK-10 renal
U251 CNS = system: U251 CNS
UACC-257 melanoma = system: UACC-257 melanoma
UACC-62 melanoma = system: UACC-62 melanoma
UO-31 renal = system: UO-31 renal

O=C(N/N=C(\CN1CCN(c2cc3[nH]cc(C(=O)O)c(=O)c3cc2F)CC1)c1ccc(Cl)cc1)c1ccncc1
81.2 µM: TGI (NCI-H23 lung)
19.9 µM: TGI (OVCAR-3 ovarian)
66.3 µM: TGI (NCI/ADR-RES ovarian)
42.6 µM: TGI (ACHN renal)
55.4 µM: TGI (SR leukemia)
67.6 µM: TGI (NCI-H460 lung)
42.8 µM: TGI (HCT-15 colon)
49.4 µM: TGI (MDA-MB-435)
61.9 µM: TGI (UACC-62 melanoma)
52.1 µM: TGI (SF-295 CNS)
33.4 µM: TGI (LOX IMVI melanoma)
49 µM: TGI (UACC-257 melanoma)
41.8 µM: TGI (UO-31 renal)
43 µM: TGI (RPMI-8226 leukemia)
65.5 µM: TGI (A549 NSCLC)
89.9 µM: TGI (SF-268 CNS)
99.2 µM: TGI (HS 578T breast)
87.4 µM: TGI (SF-539 CNS)
79.5 µM: TGI (M14 melanoma)
43.3 µM: TGI (HL-60(TB) leukemia)
46.1 µM: TGI (MDA-MB-231 breast)
52.6 µM: TGI (MOLT-4 leukemia)
58 µM: TGI (MALME-3M melanoma)
31.6 µM: TGI (SK-MEL-5 melanoma)
inactive: GI50 (786-0 renal) 39.9 µM | GI50 (A498 renal) 23.3 µM | GI50 (A549 NSCLC) 22.3 µM | GI50 (ACHN renal) 18.4 µM | GI50 (BT-549 breast) 33.6 µM | GI50 (CAKI-1 renal) 1.96 µM | GI50 (CCRF-CEM leukemia) 22.5 µM | GI50 (COLO 205 colon) 78 µM | GI50 (DU-145 prostate) 36 µM | GI50 (EKVX NSCLC) 38 µM | GI50 (HCT-116 colon) 37.5 µM | GI50 (HCT-15 colon) 21.1 µM | GI50 (HL-60(TB) leukemia) 19.4 µM | GI50 (HOP-62 NSCLC) 39.4 µM | GI50 (HS 578T breast) 29.1 µM | GI50 (HT29 colon) 37 µM | GI50 (IGROV1 ovarian) 3.32 µM | GI50 (K-562 leukemia) 26.9 µM | GI50 (KM12 colon) 30.6 µM | GI50 (LOX IMVI melanoma) 16.8 µM | GI50 (M14 melanoma) 32.3 µM | GI50 (MALME-3M melanoma) 18.6 µM | GI50 (MCF7 breast) 21 µM | GI50 (MDA-MB-231 breast) 20.2 µM | GI50 (MDA-MB-435) 19.4 µM | GI50 (MOLT-4 leukemia) 22.8 µM | GI50 (NCI-H226 lung) 23.1 µM | GI50 (NCI-H23 lung) 30.8 µM | GI50 (NCI-H460 lung) 22.7 µM | GI50 (NCI-H522 lung) 22.7 µM | GI50 (NCI/ADR-RES ovarian) 28.4 µM | GI50 (OVCAR-3 ovarian) 2.89 µM | GI50 (OVCAR-4 ovarian) 39.8 µM | GI50 (OVCAR-5 ovarian) 50.9 µM | GI50 (OVCAR-8 ovarian) 21.4 µM | GI50 (PC-3 prostate) 22.7 µM | GI50 (RPMI-8226 leukemia) 19 µM | GI50 (SF-268 CNS) 25.8 µM | GI50 (SF-295 CNS) 21 µM | GI50 (SF-539 CNS) 28.6 µM | GI50 (SK-MEL-2 melanoma) 30.7 µM | GI50 (SK-MEL-28 melanoma) > 100 µM | GI50 (SK-MEL-5 melanoma) 16.4 µM | GI50 (SK-OV-3 ovarian) 78.6 µM | GI50 (SN12C renal) 24.8 µM | GI50 (SNB-19 CNS) 76.9 µM | GI50 (SNB-75 CNS) 61.6 µM | GI50 (SR leukemia) 18.2 µM | GI50 (T-47D breast) 42.2 µM | GI50 (TK-10 renal) 43 µM | GI50 (U251 CNS) 33.5 µM | GI50 (UACC-257 melanoma) 23.2 µM | GI50 (UACC-62 melanoma) 25.6 µM | GI50 (UO-31 renal) 18.7 µM
80.5 µM: TGI (NCI-H226 lung)
74.4 µM: TGI (SK-MEL-2 melanoma)
> 100 µM: TGI (786-0 renal) | TGI (A498 renal) | TGI (BT-549 breast) | TGI (CCRF-CEM leukemia) | TGI (COLO 205 colon) | TGI (DU-145 prostate) | TGI (EKVX NSCLC) | TGI (HCT-116 colon) | TGI (HOP-62 NSCLC) | TGI (HT29 colon) | TGI (K-562 leukemia) | TGI (KM12 colon) | TGI (OVCAR-4 ovarian) | TGI (OVCAR-5 ovarian) | TGI (SK-MEL-28 melanoma) | TGI (SK-OV-3 ovarian) | TGI (SNB-19 CNS) | TGI (SNB-75 CNS) | TGI (T-47D breast) | TGI (TK-10 renal) | TGI (U251 CNS)
5.61 µM: TGI (CAKI-1 renal)
61.8 µM: TGI (SN12C renal)
52.4 µM: TGI (PC-3 prostate)
47.4 µM: TGI (OVCAR-8 ovarian)
52.9 µM: TGI (NCI-H522 lung)
66.9 µM: TGI (MCF7 breast)
26.9 µM: TGI (IGROV1 ovarian)
